We go through one molecule from patent publication US12201601B2, “Treatment for obesity” (Axsome Malta Ltd., priority 2013, dated 2025).

This experiment is described as follows: 6-week randomized, double blind, active and placebo-controlled study in adult subjects with major depressive disorder: body weight. The format is in vivo, Humans. Here is the method: A 6-week randomized, double blind, parallel group, active and placebo-controlled study was carried out to assess the efficacy of R228060 in adult subjects with major depressive disorder (MDD). Body weight was monitored throughout the study.

Where [1] appears, read: Paroxetine (N = 117), baseline to endpoint.
Setting [2] is: Paroxetine group, baseline to endpoint.

The structures appear in SMILES notation.

For the molecule `Fc1ccc([C@@H]2CCNC[C@H]2COc2ccc3c(c2)OCO3)cc1` [Paroxetine, reference compound], under setting [1], the “Subjects with weight Decrease ≥7%” value was 0 n (%), the “Subjects with weight Increase <7%” value was 54 (46.2) n (%), the “Subjects with weight Increase ≥7%” value is on record as 1 (0.9) n (%) and the “Subjects with weight No change/decrease <7%” value is given as 62 (53.0) n (%). In addition, where the note is “Paroxetine group, 6-week study”, the “Weight, End point, Mean” value is reported as 83.2 kg and the “Weight, End point, Median” value stood at 79.8 kg. Besides, under setting [2], the Mean weight gain stood at 0.1 kg; the “Weight, Change from Baseline, Mean” value came out at 0.1 kg; the “Weight, Change from Baseline, Median” value was determined as 0.0 kg. Moreover, the “Mean change from baseline to endpoint in BMI” value (paroxetine) came out at 0.
